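Tested at 5 concentrations; 48 h exposure; 96-well plates; endpoints linearly interpolated, else capped at highest concentration. At the GI50, growth is halved.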 Activity calls are given as the source filed them. Cut-off read from the data, not from the text of the source: active = GI50 up to about 1.1 µM and inactive = higher.
Assays:
Assay in all cases: NCI anticancer screen, dose series, 48 h
KM12 = tested on: KM12
SW-620 = tested on: SW-620
SK-MEL-5 = tested on: SK-MEL-5
COLO 205 = tested on: COLO 205
K562 = tested on: K562
OVCAR-3 = tested on: OVCAR-3
U-251 = tested on: U-251
786-0 = tested on: 786-0
NCI-H23 = tested on: NCI-H23
HCT-116 = tested on: HCT-116
CCRF-CEM = tested on: CCRF-CEM
EKVX = tested on: EKVX
SK-MEL-2 = tested on: SK-MEL-2
LOX IMVI = tested on: LOX IMVI
A549 = tested on: A549
SF-268 = tested on: SF-268
SR = tested on: SR
SK-MEL-28 = tested on: SK-MEL-28
MDA-MB-231 = tested on: MDA-MB-231

Compound	GI50 (KM12)	GI50 (SW-620)	GI50 (SK-MEL-5)	GI50 (COLO 205)	GI50 (K562)	GI50 (OVCAR-3)	GI50 (U-251)	GI50 (786-0)	GI50 (NCI-H23)	GI50 (HCT-116)	GI50 (CCRF-CEM)	GI50 (EKVX)	GI50 (SK-MEL-2)	GI50 (LOX IMVI)	GI50 (A549)	GI50 (SF-268)	GI50 (SR)	GI50 (SK-MEL-28)	GI50 (MDA-MB-231)
Cc1nc(N)sc1C(=O)/C=C\c1ccc2c(c1)OCO2	> 100 µM (inactive)	> 100 µM (inactive)	> 100 µM (inactive)	> 100 µM (inactive)	> 100 µM (inactive)	> 100 µM (inactive)	> 100 µM (inactive)	> 100 µM (inactive)	> 100 µM (inactive)	> 100 µM (inactive)	> 100 µM (inactive)	> 100 µM (inactive)	> 100 µM (inactive)	> 100 µM (inactive)	> 100 µM (inactive)	> 100 µM (inactive)	> 100 µM (inactive)	> 100 µM (inactive)	–
Cc1cc(C)c(C2[C@H]3C(=O)N(c4ccc(Cc5ccc(N6C(=O)[C@@H]7ON(c8ccccc8)C(c8c(C)cc(C)cc8C)[C@@H]7C6=O)cc5)cc4)C(=O)[C@H]3ON2c2ccccc2)c(C)c1 (some centres not stated)	> 100 µM (inactive)	> 100 µM (inactive)	> 100 µM (inactive)	> 100 µM (inactive)	> 100 µM (inactive)	> 100 µM (inactive)	> 100 µM (inactive)	> 100 µM (inactive)	> 100 µM (inactive)	> 100 µM (inactive)	> 100 µM (inactive)	> 100 µM (inactive)	> 100 µM (inactive)	> 100 µM (inactive)	> 100 µM (inactive)	> 100 µM (inactive)	> 100 µM (inactive)	> 100 µM (inactive)	–
CC1CCN(CCC(=O)CC(c2ccccc2)c2c(O)c3ccccc3oc2=O)CC1 (configuration not stated)	> 100 µM (inactive)	> 100 µM (inactive)	> 100 µM (inactive)	> 100 µM (inactive)	> 100 µM (inactive)	> 100 µM (inactive)	> 100 µM (inactive)	> 100 µM (inactive)	> 100 µM (inactive)	> 100 µM (inactive)	> 100 µM (inactive)	> 100 µM (inactive)	> 100 µM (inactive)	> 100 µM (inactive)	> 100 µM (inactive)	> 100 µM (inactive)	> 100 µM (inactive)	> 100 µM (inactive)	–
CC(C)(c1ccccc1)c1ccc(OC#N)cc1	> 75 µM (inactive)	99.3 µM (inactive)	48.8 µM (inactive)	> 41.3 µM (inactive)	37.8 µM (inactive)	> 100 µM (inactive)	47.2 µM (inactive)	> 58.1 µM (inactive)	68.9 µM (inactive)	34.4 µM (inactive)	40.6 µM (inactive)	> 100 µM (inactive)	> 100 µM (inactive)	> 41 µM (inactive)	73.5 µM (inactive)	42 µM (inactive)	19.2 µM (inactive)	> 70.5 µM (inactive)	–
NNC(=O)Cn1ccnn1	> 100 µM (inactive)	> 100 µM (inactive)	> 100 µM (inactive)	> 100 µM (inactive)	> 100 µM (inactive)	–	> 100 µM (inactive)	> 100 µM (inactive)	> 100 µM (inactive)	–	> 100 µM (inactive)	> 100 µM (inactive)	> 100 µM (inactive)	> 100 µM (inactive)	> 100 µM (inactive)	> 100 µM (inactive)	> 100 µM (inactive)	> 100 µM (inactive)	> 100 µM (inactive)
CCOC(=O)Oc1c(OC)cc(C(=O)NC2CCc3cc(OC)c(OC)c(OC)c3-c3ccc(SC)c(=O)cc32)cc1OC (configuration not stated)	0.0378 µM (active)	0.0419 µM (active)	0.0456 µM (active)	0.0439 µM (active)	< 0.007 µM (active)	0.0322 µM (active)	0.0346 µM (active)	0.239 µM (active)	0.0439 µM (active)	0.0566 µM (active)	< 0.007 µM (active)	0.16 µM (active)	0.0466 µM (active)	0.0466 µM (active)	0.428 µM (active)	0.0916 µM (active)	< 0.007 µM (active)	20.7 µM (inactive)	–
